Read-outs that look alike come from different tables or passages of the source.

This is an account of results in US8735388B2, “Heterocyclic compounds with affinity to muscarinic receptors” (Abbvie B. V. A., priority 2007, dated 2014).

For data set [1], the target named is T1, Muscarine M4 (GPCR-A-MA-ACH M4) (Homo sapiens, UniProt P08173).
T1 construct: expressed in transfected cells; host or cells: CHO cells
T1 sequence (P08173 1-479): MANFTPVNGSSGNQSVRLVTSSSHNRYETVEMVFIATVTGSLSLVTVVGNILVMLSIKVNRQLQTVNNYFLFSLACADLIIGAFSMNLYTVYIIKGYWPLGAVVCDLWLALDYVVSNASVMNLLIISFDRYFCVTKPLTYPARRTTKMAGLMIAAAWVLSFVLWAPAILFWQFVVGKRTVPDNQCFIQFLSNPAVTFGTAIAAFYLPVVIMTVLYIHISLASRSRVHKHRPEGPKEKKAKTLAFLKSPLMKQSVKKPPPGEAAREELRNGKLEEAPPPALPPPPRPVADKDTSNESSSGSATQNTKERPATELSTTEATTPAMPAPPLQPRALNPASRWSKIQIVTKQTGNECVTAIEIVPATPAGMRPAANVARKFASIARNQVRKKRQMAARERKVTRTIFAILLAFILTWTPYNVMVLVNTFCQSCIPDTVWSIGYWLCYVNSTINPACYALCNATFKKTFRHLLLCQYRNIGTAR
The data set is described as follows: Muscarine M4 receptor binding, 3H-4DAMP. The note with it: human M4, CHO cells, ligand 0.2 nM, 60 min/22° C., read-out: RB Musc. M4 3H-DAMP pKi (converted). In a few lines:
(§1)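 Human M1 ([3H]-pirenzepine), M3, and M4 ([3H]-4DAMP or [3H]-oxotremorine) receptor preparations incubated with radioligand and compound, first at 10 μM, then at 10-fold lower concentrations if inhibition exceeded 40%. Bound ligand separated by glass-fibre filtration and counted by scintillation. IC50 from Hill fit, converted to Ki via Cheng-Prusoff, reported as pKi.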

Data set [2] addresses T1, Muscarine M4 (GPCR-A-MA-ACH M4). The data set is described as follows: Muscarine M4 receptor binding, 3H-Oxotremorine. In a few lines: as §1
Data set [3] has the same target. The data set is described as follows: Muscarine M4 cell-based functional assay (CHO cells, Ca2+ - Aequorin luminescence). Put shortly: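 CHO cells expressing human M4 were exposed to compound, with Ca2+ response read by aequorin luminescence. Compounds were first tested at 1 μM, then at 10-fold lower concentrations if active; stimulation or inhibition was relative to the reference agonist. EC50/IC50 came from Hill-equation fits.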

Data set [4] concerns the target T2, Muscarine M1 (GPCR-A-MA-ACH M1) (Homo sapiens, UniProt P11229).
T2 construct: expressed in transfected cells; host or cells: CHO cells
T2 sequence (P11229 1-460): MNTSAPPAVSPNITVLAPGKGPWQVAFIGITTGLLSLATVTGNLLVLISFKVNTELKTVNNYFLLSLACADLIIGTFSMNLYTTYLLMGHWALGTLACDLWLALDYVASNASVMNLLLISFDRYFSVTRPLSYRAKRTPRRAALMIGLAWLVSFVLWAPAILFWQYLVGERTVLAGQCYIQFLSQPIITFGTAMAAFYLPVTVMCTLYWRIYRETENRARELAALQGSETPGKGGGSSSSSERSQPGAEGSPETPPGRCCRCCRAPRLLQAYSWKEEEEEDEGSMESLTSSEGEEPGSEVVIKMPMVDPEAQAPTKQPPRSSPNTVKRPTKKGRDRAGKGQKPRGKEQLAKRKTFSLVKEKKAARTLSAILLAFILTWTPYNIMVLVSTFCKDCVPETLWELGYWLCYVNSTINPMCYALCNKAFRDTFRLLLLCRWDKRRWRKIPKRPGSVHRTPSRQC
The data set is described as follows: Muscarine M1 receptor binding, 3H-Pirenzepine. The following applies: human M1, CHO cells, ligand 2 nM, 60 min/22° C., read-out: RB Musc. M1 3H-Pirenzepine pKi (converted). In a few lines:
as §1

In data set [5] the target is T2, Muscarine M1 (GPCR-A-MA-ACH M1). The data set is described as follows: Muscarine M1 cell-based functional assay (CHO cells, Ca2+ - FLIPR Fluorimetry). The note with it: read-out: Cell funct. Musc. M1 Agonism pEC50 (converted).
The target in data set [6] is T3, Muscarine M2 (GPCR-A-MA-ACH M2) (Homo sapiens, UniProt P08172).
T3 construct: expressed in transfected cells; host or cells: CHO cells
T3 sequence (P08172 1-466): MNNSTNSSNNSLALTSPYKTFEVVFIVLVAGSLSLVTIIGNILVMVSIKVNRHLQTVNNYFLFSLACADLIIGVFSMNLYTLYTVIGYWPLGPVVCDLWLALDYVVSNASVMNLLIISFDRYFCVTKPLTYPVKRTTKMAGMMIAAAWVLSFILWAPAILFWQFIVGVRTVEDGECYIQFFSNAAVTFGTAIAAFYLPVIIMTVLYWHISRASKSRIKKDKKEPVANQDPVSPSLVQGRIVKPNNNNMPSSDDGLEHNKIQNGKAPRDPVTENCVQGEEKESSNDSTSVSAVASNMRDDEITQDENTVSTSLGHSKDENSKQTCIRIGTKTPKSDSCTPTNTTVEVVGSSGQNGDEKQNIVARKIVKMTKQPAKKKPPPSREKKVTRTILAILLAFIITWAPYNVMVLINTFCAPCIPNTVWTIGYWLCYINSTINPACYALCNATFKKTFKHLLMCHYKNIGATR
Description: Muscarine M2 receptor binding.

The target of data set [7] is T4, Muscarine M2 (GPCR-A-MA-ACH M2) (Cavia porcellus, UniProt H0VRN8).
T4 construct: from tissue; host or cells: guinea pig left atrium (electrically paced)
T4 sequence (H0VRN8 1-466): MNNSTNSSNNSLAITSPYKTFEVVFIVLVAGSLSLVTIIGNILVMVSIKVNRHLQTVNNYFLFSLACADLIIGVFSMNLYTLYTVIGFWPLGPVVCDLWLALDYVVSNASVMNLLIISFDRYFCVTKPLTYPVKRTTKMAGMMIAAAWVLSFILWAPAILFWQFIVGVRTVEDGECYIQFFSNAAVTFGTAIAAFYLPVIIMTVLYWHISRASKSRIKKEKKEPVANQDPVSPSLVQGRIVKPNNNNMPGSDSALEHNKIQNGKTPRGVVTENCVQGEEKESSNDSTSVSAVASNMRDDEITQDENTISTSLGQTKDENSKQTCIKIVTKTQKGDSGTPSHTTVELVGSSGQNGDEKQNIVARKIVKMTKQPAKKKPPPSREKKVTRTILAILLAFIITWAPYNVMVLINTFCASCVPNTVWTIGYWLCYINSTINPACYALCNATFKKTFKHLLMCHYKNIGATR
The data set is described as follows: Muscarine M2 functional assay, isolated organ (left atrium, electrically paced), agonist and antagonist mode. On the set-up: species or system Guinea Pig. The following applies: for EC50: read-out: Cell funct. Musc. M2 Agonism pEC50 (converted).

Data set [8] deals with T5, Muscarine M3 (GPCR-A-MA-ACH M3) (Homo sapiens, UniProt P20309).
T5 construct: expressed in transfected cells; host or cells: CHO cells
T5 sequence (P20309 whole entry): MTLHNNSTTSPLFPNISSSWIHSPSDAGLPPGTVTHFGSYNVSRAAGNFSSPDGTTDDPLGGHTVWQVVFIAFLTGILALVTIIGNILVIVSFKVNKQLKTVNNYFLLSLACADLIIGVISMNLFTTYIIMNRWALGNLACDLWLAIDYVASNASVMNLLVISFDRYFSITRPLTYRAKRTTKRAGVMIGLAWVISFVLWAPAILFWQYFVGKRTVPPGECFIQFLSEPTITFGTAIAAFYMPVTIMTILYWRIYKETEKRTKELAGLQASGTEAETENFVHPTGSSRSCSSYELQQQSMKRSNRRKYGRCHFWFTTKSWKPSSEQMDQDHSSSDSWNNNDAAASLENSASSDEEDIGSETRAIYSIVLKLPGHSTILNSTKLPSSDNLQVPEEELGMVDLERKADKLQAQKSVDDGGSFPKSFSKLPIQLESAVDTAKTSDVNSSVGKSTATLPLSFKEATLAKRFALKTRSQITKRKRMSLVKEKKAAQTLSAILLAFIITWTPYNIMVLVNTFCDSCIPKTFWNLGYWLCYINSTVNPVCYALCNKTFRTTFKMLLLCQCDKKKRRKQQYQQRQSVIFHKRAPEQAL
The data set is described as follows: Muscarine M3 receptor binding.

Data set [9] has as its target T6, Muscarine M3 (GPCR-A-MA-ACH M3) (Cavia porcellus, UniProt H0W1Z3).
T6 construct: from tissue; host or cells: guinea pig ileum
Description: Muscarine M3 functional assay, isolated organ (ileum), agonist and antagonist mode. More on the design: species or system Guinea Pig. The following applies: for EC50: read-out: Cell funct. Musc. M3 Agonism pEC50 (converted).

The nature of data set [10]: Stability in human liver homogenate (metabolic stability in vitro). It counts as in vitro ADME. The following applies: read-out: t ½. The text has this: DÖRJE, F., WESS, J., LAMBRECHT, G., TACKE, R., […], E. and BRANN, M. R. (1991) Antagonist binding profiles of five cloned human muscarinic receptor subtypes. J. Pharmacol. Exp. Ther., 256: 727-733. • […], M. H. (1990) Rat hippocampal muscarinic autoreceptors are similar to the M2 (cardiac) subtype: comparison with hippocampal M1, atrial M2 and ileal M3 receptors. Brit. J. Pharmacol., 99: 753-761. • PERALTA, E. G., ASHKENAZI, A., WINSLOW, J. W., SMITH, D. H., […], J. and CAPON, D. J. (1987) Distinct primary structures, ligand-binding properties and tissue-specific expression of four human muscarinic acetylcholine receptors. EMBO. J., 6: 3923-3929. Determination of Metabolic Stability (In Vitro)
Method used according to procedures described by DI, L. et al., Journal of Biomolecular Screening, Vol. 8, No. 4, 453-462 (2003).

The subject of data set [11] is Muscarine M1 (GPCR-A-MA-ACH M1). The data set is described as follows: Muscarine M1 functional assay, isolated organ (vas deferens, field-stimulated). The note with it: assay characteristic; Muscarine M1, rabbit vas deferens, inhibition of twitch contraction; read-out: Reference Agonist Ligand EC50. The method, then:
Compounds were dissolved in DMSO (10 mM) and diluted in assay buffer to test concentration. Prime testing was at 1 μM; for actives in antagonist mode (PI, percent inhibition with respect to reference agonist and blank>30%) as well as actives in agonist mode (PS, percent stimulation with respect to reference agonist and blank>30%) testing was continued at lower concentrations in 10-fold dilutions: 0.1 μM, 0.01 μM, etc.
The tissues were exposed to a maximal concentration of the respective reference agonist to verify responsiveness and to obtain a control response. Following extensive washings and recovery of the initial state, the tissues were exposed to the test compounds or the same agonist. […]
The parameters measured were the maximum change in the amplitude of the electrically-evoked contractions (M1 and M2 receptor assays) or in tension (M3 receptor assay) induced by each compound concentration. The results are expressed as a percent of the control agonist-induced response. The EC50 values of the reference agonists (concentration producing a half-maximum response) and IC50 values of the reference antagonists (concentration producing a half-maximum inhibition of the agonist-induced response) were calculated by […] analysis of their concentration-response curves.

For data set [12] the following is noted: in words, background section; cited from earlier work.
Setting [13] is: human M4, CHO cells, receptor binding, ligand 6 nM, 30 min/25° C., read-out: RB Musc. M4 3H-Oxotremorine pKi (converted).
The mark [14] stands for this setting: human M4, CHO cells, agonist mode, reference agonist oxotremorine, read-out: Cell funct. Musc. M4 Agonism pEC50 (converted).
Setting [15] is: human M1, CHO cells, agonist mode, reference agonist acetylcholine.

T6 sequence (H0W1Z3 1-590): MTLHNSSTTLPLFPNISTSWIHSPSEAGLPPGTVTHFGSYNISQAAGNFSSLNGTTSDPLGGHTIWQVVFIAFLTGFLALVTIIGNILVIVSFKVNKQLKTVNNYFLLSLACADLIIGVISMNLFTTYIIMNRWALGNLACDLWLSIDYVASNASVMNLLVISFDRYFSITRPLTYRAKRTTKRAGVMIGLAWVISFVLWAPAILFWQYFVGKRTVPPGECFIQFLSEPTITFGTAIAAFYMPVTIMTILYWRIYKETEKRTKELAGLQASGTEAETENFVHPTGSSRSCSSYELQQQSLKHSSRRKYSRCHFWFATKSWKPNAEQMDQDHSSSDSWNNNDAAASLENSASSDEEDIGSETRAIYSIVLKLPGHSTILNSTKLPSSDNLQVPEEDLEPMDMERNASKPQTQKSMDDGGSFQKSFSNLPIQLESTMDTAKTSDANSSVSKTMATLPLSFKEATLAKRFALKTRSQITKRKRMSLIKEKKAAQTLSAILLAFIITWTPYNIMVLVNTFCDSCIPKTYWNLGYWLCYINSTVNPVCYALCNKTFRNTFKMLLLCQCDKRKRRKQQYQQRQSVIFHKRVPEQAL

For the compound `CCCCCCSc1c[nH]nc1C1CN2CCC1CC2` (centres unmarked) [Compound 49F, 3-(4-Hexylsulfanyl-1H-pyrazol-3-yl)-1-azabicyclo[2.2.2]octane], the melting point (as a rule, the temperature, or range, at which the solid turns liquid) was found to be 130 °C. For the same compound, the Ki in data set [1] was 50.1 nM. Further, in [2], the Ki is 12.6 nM. In addition, in data set [3], the EC50 was 12.6 nM. In [4], the Ki was 251 nM. Moreover, the EC50 in data set [5] is 794 nM. This compound gave a Ki in data set [6] of 398 nM. In data set [7], the Kb (commonly the equilibrium dissociation constant of an antagonist, usually derived from a functional assay) is more than 1000 nM and the EC50 is more than 1000 nM. The compound also had a Ki in data set [8] of 100 nM. Also, in [9], the Kb is more than 1000 nM and the EC50 was more than 1000 nM.
Regarding `CN1CCC=C(c2n[nH]cc2SCCCC(F)(F)F)C1` [Compound 22B, 3-[4-(4,4,4-trifluoro-butylsulfanyl)-1H-pyrazol-3-yl]-1,2,5,6-tetrahydro-1-methylpyridine], the Ki in data set [1] is 126 nM; in data set [2] (setting [13]) it was 398 nM; in [4], 501 nM. The EC50 in data set [3] (setting [14]) is 501 nM; in [5] (setting [15]), 79.4 nM. Further, the half-life in data set [10] turned out to be 52 min.
`C[N+](C)(C)CC#CCOC(=O)Nc1cccc(Cl)c1.[Cl-]` [McN-A-343, reference compound]: in [9], the “Cell funct. Musc. M3 Agonism pEC50” value amounted to 6.9. For the same compound, the EC50 in data set [11] turned out to be 250 nM.
Take `CCCCCSc1c[nH]nc1C1=CCCN(C)C1` [Compound 22G, 3-(4-Pentylsulfanyl-1H-pyrazol-3-yl)-1,2,5,6-tetrahydro-1-methylpyridine]: the melting point lay in the range of 100 to 101 °C. In [1], the Ki is 50.1 nM. Besides, in data set [2] (setting [13]), the Ki is 200 nM. Besides, the EC50 in data set [3] (setting [14]) was 316 nM. For the same compound, the Ki in data set [4] is 200 nM. Further, the EC50 in [5] (setting [15]) is 39.8 nM. Moreover, in data set [10], the half-life came out at 50 min.
For `CCCCCCOc1nsnc1C1=CCCN(C)C1` [Xanomeline, reference compound], the half-life in data set [10] stood at 17 min. Also, the “(in vitro) metabolic stability” value in data set [12] is “relatively low”.
Regarding `CCCCCSc1c[nH]nc1C1CN2CCC1CC2` (centres unmarked) [Compound 49B, 3-(4-Pentylsulfanyl-1H-pyrazol-3-yl)-1-azabicyclo[2.2.2]octane], the melting point lay within 142 to 145 °C. Further, the Ki in data set [1] is 25.1 nM. Besides, in data set [2], the Ki was 7.94 nM. The EC50 in [3] is 6.31 nM. Besides, the Ki in data set [4] is 158 nM. For the same compound, in data set [5], the EC50 was 10 nM. The same compound had a Ki in data set [6] of 631 nM. For the same compound, in [7], the Kb was more than 1000 nM and the EC50 was more than 1000 nM. The compound also showed a Ki in data set [8] of 63.1 nM. In addition, in [9], the Kb was more than 1000 nM and the EC50 was more than 1000 nM.
